The target in experiment [1] is CDK6 (Homo sapiens (Human), UniProt Q00534). The experiment in a line: CDK6 protein kinase activity, Caliper mobility shift assay. The format is biochemical. To be noted: GST-CDK6(1-326 end), substrate Peptide FAM-P8, 28° C. for 3 h. The procedure:
(§1) Activity Assay: The CDK6 protein kinase activity was measured using the Caliper mobility shift assay (see J. Biomol. Screen, 2009, PP31). The test compound was dissolved in DMSO and diluted with a kinase buffer solution (20 mM HEPES-pH 7.5, 0.01% Triton X-100, 10 mM MgCl2, 2 mM DTT) and 5 μL of compound at 5-fold final concentration of reaction dissolved in 10% DMSO was added in a 384-well plate. The compound-free control well was 5 μL of 10% DMSO, and the no-activity control well was 5 μL of kinase buffer. 10 μL of a 2.5-fold diluted CDK6 enzyme solution (GST-CDK6(1-326 end)) was added and incubated at room temperature for 10 min, and then 10 μL of the 2.5-fold diluted substrate solution Peptide FAM-P8 was added. The reaction was stopped by adding 25 μL of stop solution after incubation at 28° C. for 3 h, and the conversion rate data was read on a Caliper EZ Reader II (Caliper Life Sciences) and the conversion rate was converted to inhibition rate data according to above method. Among them, the inhibition rate %=(max−conversion)/(max−min)×100%.

In experiment [2] the target is CDK4 (Homo sapiens (Human), UniProt P11802). The experiment in a line: CDK4 protein kinase activity, Caliper mobility shift assay. To be noted: GST-CDK4(1-303 end), substrate Peptide FAM-P8, 28° C. for 3 h. The format is biochemical. The procedure:
as §1, with “activity assay:” for “Activity Assay:”, “CDK4” for “CDK6”, “(GST-CDK4(1-303” for “(GST-CDK6(1-326”

CDK6, sequence (Q00534 whole entry): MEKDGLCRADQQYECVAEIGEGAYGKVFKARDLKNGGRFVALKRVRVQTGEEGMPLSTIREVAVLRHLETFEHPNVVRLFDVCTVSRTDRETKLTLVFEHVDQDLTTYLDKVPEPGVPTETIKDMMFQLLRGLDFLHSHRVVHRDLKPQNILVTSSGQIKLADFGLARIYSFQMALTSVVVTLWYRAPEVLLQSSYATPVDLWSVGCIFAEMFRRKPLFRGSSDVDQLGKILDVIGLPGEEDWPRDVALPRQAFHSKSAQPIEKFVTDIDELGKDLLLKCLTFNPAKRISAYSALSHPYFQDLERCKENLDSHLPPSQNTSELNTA
CDK6, sequence (P30281 whole entry partner): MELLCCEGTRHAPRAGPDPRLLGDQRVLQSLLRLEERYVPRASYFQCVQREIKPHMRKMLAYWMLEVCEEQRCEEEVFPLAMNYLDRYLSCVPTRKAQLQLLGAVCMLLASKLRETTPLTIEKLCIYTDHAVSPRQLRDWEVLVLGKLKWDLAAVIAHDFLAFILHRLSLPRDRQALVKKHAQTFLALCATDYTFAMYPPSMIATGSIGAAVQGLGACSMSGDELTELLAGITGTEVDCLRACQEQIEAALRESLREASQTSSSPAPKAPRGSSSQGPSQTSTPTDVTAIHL
CDK4, sequence (P11802 whole entry): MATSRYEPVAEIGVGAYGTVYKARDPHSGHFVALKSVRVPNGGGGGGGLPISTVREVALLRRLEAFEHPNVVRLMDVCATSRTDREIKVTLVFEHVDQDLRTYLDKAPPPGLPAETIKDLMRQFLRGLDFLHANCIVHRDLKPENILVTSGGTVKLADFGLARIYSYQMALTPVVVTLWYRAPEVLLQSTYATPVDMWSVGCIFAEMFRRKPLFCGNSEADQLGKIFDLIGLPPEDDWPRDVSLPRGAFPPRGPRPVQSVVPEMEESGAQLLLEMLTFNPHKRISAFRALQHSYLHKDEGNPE
CDK4, sequence (P30281 whole entry partner): as the sequence (P30281 whole entry partner) above

In the case of `CCN1CCN(Cc2ccc(Nc3ncc(F)c(-c4ccc5nnc(C(F)(F)F)n5c4)n3)nc2)CC1` [Compound I-33, N-(5-(4-ethylpiperazine-1-methyl)-pyridin-2-yl)-5-fluoro-4-(3-trifluoromethyl-[1,2,4]triazolo[4,3-a]pyridin-6-yl)pyrimidin-2-amine], the IC50 in experiment [1] and in experiment [2] was not above 20 nM throughout.

Take `CC(C)n1c(C2CCCC2)cc2cc(-c3nc(Nc4ccc(N5CCN(C6CCC6)CC5)cn4)ncc3F)ccc21` [Compound I-21, N-(5-(4-cyclobutylpiperazin-1-yl)-pyridin-2-yl)-5-fluoro-4-(1-isopropyl-2-cyclopentyl-1H-indol-5-yl)pyrimidin-2-amine]: the IC50 in experiment [1] was 20 to 100 nM; in experiment [2], not above 20 nM.

In the case of `CCN1CCN(Cc2ccc(Nc3ncc(F)c(-c4ccc5c(c4)c(C(C)=O)nn5C(C)C)n3)nc2)CC1` [Compound I-44, N-(5-(4-ethylpiperazine-1-methyl)-pyridin-2-yl)-5-fluoro-4-(1-isopropyl-3-acetyl-1H-indazol-5-yl)pyrimidin-2-amine], the figures for the IC50 in experiment [1] and in experiment [2] were more than 500 nM and not above 20 nM, respectively.

For the molecule `CCN1CCN(c2ccc(Nc3ncc(F)c(-c4ncc5nc(C)n(C(C)C)c5n4)n3)nc2)CC1` [Compound I-48, N-(5-(4-ethylpiperazin-1-yl)-pyridin-2-yl)-5-fluoro-4-(9-isopropyl-8-methyl-9H-purin-2-yl)pyrimidin-2-amine], the half-maximal inhibitory concentration (IC50) in experiment [1] is 100 to 500 nM; in experiment [2], not above 20 nM.

As to `CC(C)n1c(C(=O)N(C)C)cc2c(F)c(-c3nc(Nc4ccc(N5CCNCC5)cn4)ncc3F)ccc21` [Compound I-28, N-(5-(piperazin-1-yl)-pyridin-2-yl)-5-fluoro-4-(1-isopropyl-2-formic acid diformamido-1H-4-fluoroindol-5-yl)pyrimidin-2-amine], the results for the IC50 in experiment [1] and in experiment [2] were 20 to 100 nM and not above 20 nM, respectively.

Take `CC(=O)c1nc(C2CC2)n2cc(-c3nc(Nc4ccc(N5CCNCC5)cn4)ncc3F)cc(F)c12` [Compound I-32, N-(5-(piperazin-1-yl)-pyridin-2-yl)-5-fluoro-4-(1-acetyl-3-cyclopropyl-8-fluoro-imidazolo[1,5-a]pyridin-6-yl)pyrimidin-2-amine]: the IC50 was 20 to 100 nM in experiment [1] and not above 20 nM in experiment [2].

In the case of `CCN1CCN(Cc2ccc(Nc3ncc(F)c(-c4ccc5nnc(C(C)=O)n5c4)n3)nc2)CC1` [Compound I-35, N-(5-(4-ethylpiperazine-1-methyl)-pyridin-2-yl)-5-fluoro-4-(3-acetyl-[1,2,4]triazolo[4,3-a]pyridin-6-yl)pyrimidin-2-amine], the IC50 in experiment [1] and in experiment [2] was 20 to 100 nM each time.

As for `CC(C)n1c(C(=O)N(C)C)cc2nc(-c3nc(Nc4ccc(N5CCNCC5)cn4)ncc3F)ccc21` [Compound I-25, N-(5-(piperazin-1-yl)-pyridin-2-yl)-5-fluoro-4-(1-isopropyl-2-formic acid diformamido-1H-4-azaindol-5-yl)pyrimidin-2-amine], the IC50 in experiment [1] and in experiment [2] was not above 20 nM throughout.

For `CN(C)C(=O)c1cc2cc(-c3nc(Nc4ccc(N5CCNCC5)cn4)ncc3F)ccc2n1C1CCCC1` [Compound I-14, N-(5-(piperazin-1-yl)-pyridin-2-yl)-5-fluoro-4-(1-cyclopentyl-2-formic acid diformamido-1H-indol-5-yl)pyrimidin-2-amine], the IC50 in experiment [1] and in experiment [2] was not above 20 nM in each case.

Turning to `Cc1c2ccc(-c3nc(Nc4ccc(N5CCNCC5)cn4)ncc3F)cc2nn1C` [Compound I-5, N-(5-(piperazin-1-yl)-pyridin-2-yl)-5-fluoro-4-(2,3-dimethyl-2H-indazol-6-yl)pyrimidin-2-amine], the IC50 in experiment [1] and in experiment [2] was not above 20 nM each time.

Regarding `CCN1CCN(Cc2ccc(Nc3ncc(F)c(-c4ccc5c(cc(C(=O)N(C)C)n5C(C)C)c4F)n3)nc2)CC1` [Compound I-27, N-(5-(4-ethylpiperazine-1-methyl)-pyridin-2-yl)-5-fluoro-4-(1-isopropyl-2-formic acid diformamido-1H-4-fluoroindol-5-yl)pyrimidin-2-amine], the half-inhibitory concentration (IC50) in experiment [1] and in experiment [2] was not above 20 nM each time.

`CC(=O)c1cn(C2CCCC2)c2ccc(-c3nc(Nc4ccc(N5CCNCC5)cn4)ncc3F)cc12` [Compound I-3, N-(5-(piperazin-1-yl)-pyridin-2-yl)-5-fluoro-4-(1-cyclopentyl-3-acetyl-1H-indol-5-yl)pyrimidin-2-amine]: the IC50 in experiment [1] and in experiment [2] was not above 20 nM each time.

Take `CCN1CCN(Cc2ccc(Nc3ncc(F)c(-c4ccc5c(c(C)nn5C5CCCC5)c4F)n3)nc2)CC1` [Compound I-45, N-(5-(4-ethylpiperazine-1-methyl)-pyridin-2-yl)-5-fluoro-4-(1-cyclopentyl-3-methyl-4-fluoro-1H-indazol-5-yl)pyrimidin-2-amine]: the IC50 in experiment [1] and in experiment [2] was 20 to 100 nM throughout.

As for `CC(C)n1c(C(=O)N(C)C)c(F)c2c(-c3nc(Nc4ccc(N5CCNCC5)cn4)ncc3F)ncnc21` [Compound I-10, N-(5-(piperazin-1-yl)-pyridin-2-yl)-5-fluoro-4-(5-fluoro-6-formic acid diformamido-7-isopropyl-7H-pyrrolo[2,3-d]pyrimidin-4-yl)pyrimidin-2-amine], the figures for the IC50 in experiment [1] and in experiment [2] were 20 to 100 nM and not above 20 nM, respectively.

On to `Fc1cnc(Nc2ccc(CN3CCN(C4CCCCCC4)CC3)cn2)nc1-c1ccc2c(c1)c(C1CC1)cn2C1CCC1` [Compound I-18, N-(5-(4-cycloheptylpiperazine-1-methyl)-pyridin-2-yl)-5-fluoro-4-(1-cyclobutyl-3-cyclopropyl-1H-indol-5-yl)pyrimidin-2-amine], for which the 50% inhibitory concentration (IC50) in experiment [1] and in experiment [2] was not above 20 nM throughout.

Turning to `CCN1CCN(Cc2ccc(Nc3ncc(F)c(-c4ccc5c(ccn5C(C)C)c4)n3)nc2)CC1` [Compound I-1, N-(5-(4-ethylpiperazine-1-methyl)-pyridin-2-yl)-5-fluoro-4-(1-isopropyl-1H-indol-5-yl)-pyrimidin-2-amine], the half-inhibitory concentration (IC50) in experiment [1] and in experiment [2] was not above 20 nM throughout.

In the case of `CCN1CCN(Cc2ccc(Nc3ncc(F)c(-c4ccc5c(c4)cc(C(=O)N(C)C)n5C4CCCC4)n3)nc2)CC1` [Compound I-22, N-(5-(4-ethylpiperazine-1-methyl)-pyridin-2-yl)-5-fluoro-4-(1-cyclopentyl-2-formic acid diformamido-1H-indol-5-yl)pyrimidin-2-amine], the IC50 in experiment [1] and in experiment [2] was not above 20 nM throughout.

Turning to `CCN1CCN(Cc2ccc(Nc3ncc(F)c(-c4ccc5nnc(C6CC6)n5c4)n3)nc2)CC1` [Compound I-36, N-(5-(4-ethylpiperazin-1-methyl)-pyridin-2-yl)-5-fluoro-4-(3-cyclopropyl-[1,2,4]triazolo[4,3-a]pyridin-6-yl)pyrimidin-2-amine], the concentration for half-maximal inhibition (IC50) in experiment [1] and in experiment [2] was not above 20 nM throughout.

Consider `CCN1CCN(Cc2ccc(Nc3ncc(F)c(-c4ncnc5c4c(C#N)cn5C)n3)nc2)CC1` [Compound I-42, N-(5-(4-ethylpiperazine-1-methyl)-pyridin-2-yl)-5-fluoro-4-(5-cyano-7-methyl-7H-pyrrolo[2,3-d]pyrimidin-4-yl)pyrimidin-2-amine], for which the half-inhibitory concentration (IC50) in experiment [1] was 20 to 100 nM; in experiment [2] it was not above 20 nM.

With `CC(=O)c1nc2cnc(-c3nc(Nc4ccc(CN5CCN(C)CC5)cn4)ncc3F)nc2n1C(C)C` [Compound I-38, N-(5-(4-methylpiperazine-1-methyl)-pyridin-2-yl)-5-fluoro-4-(9-isopropyl-8-acetyl-9H-purin-2-yl)pyrimidin-2-amine], the IC50 in experiment [1] and in experiment [2] was not above 20 nM in each case.

As to `CC(C)c1c(C#N)n(C2CC2)c2ccc(-c3nc(Nc4ccc(CN5CCN(C6CC6)CC5)cn4)ncc3F)cc12` [Compound I-17, N-(5-(4-cyclopropylpiperazine-1-methyl)-pyridin-2-yl)-5-fluoro-4-(1-cyclopropyl-2-cyano-3-isopropyl-1H-indol-5-yl)pyrimidin-2-amine], in experiment [1], the IC50 is 20 to 100 nM.

Regarding `CC(C)c1c2ccc(-c3nc(Nc4ccc(N5CCNCC5)cn4)ncc3F)c(Cl)c2nn1C` [Compound I-30, N-(5-(piperazin-1-yl)-pyridin-2-yl)-5-fluoro-4-(2-methyl-3-isopropyl-2H-7-chloro-indazol-6-yl)pyrimidin-2-amine], in experiment [1], the IC50 is 20 to 100 nM.

What is called IC50 is the concentration needed to halve the response being measured.

The record behind these values is patent publication US10464927B2, “2,4-disubstituted pyrimidines as CDK inhibitors” (Shanghai Xunhe Pharmaceutical Technology Co. Ltd., priority 2016, dated 2019).
